In patent publication US9012398B2, “Acylated exendin-4 compounds” (priority 2006, dated 2015):
Read-outs that look alike come from different tables or passages of the source. Starred links: 1 amine or outer side, 2 acyl side, 3 side chain; linkers in the order of their positions; H or OH if unused. Residues, ends and D or L forms follow the SMILES beside them. Groups on a side chain read outwards from the residue. *: point of attachment. Palmitoyl(16-(5-tetrazolyl)) = O=C(CCCCCCCCCCCCCCCc1nnn[nH]1)*; C18 diacid = O=C(O)CCCCCCCCCCCCCCCCC(=O)*; γGlu = O=C(O)[C@H](CCC(=O)[*:2])N[*:1]; Stearoyl = CCCCCCCCCCCCCCCCCC(=O)*; AEEA = NCCOCCOCC(=O)O

How the values were obtained:
human GLP-1 receptor = target: T1, human GLP-1 receptor (Homo sapiens, UniProt P43220); assay: Functional receptor assay: cAMP formation in plasma membranes of BHK cells expressing the cloned human GLP-1 receptor (GLP1cAMPma); assay type: biochemical
T1 construct: expressed in transfected cells; host or cells: BHK cells, clone BHK-467-12A; plasma membrane preparation
T1 sequence (P43220 24-463): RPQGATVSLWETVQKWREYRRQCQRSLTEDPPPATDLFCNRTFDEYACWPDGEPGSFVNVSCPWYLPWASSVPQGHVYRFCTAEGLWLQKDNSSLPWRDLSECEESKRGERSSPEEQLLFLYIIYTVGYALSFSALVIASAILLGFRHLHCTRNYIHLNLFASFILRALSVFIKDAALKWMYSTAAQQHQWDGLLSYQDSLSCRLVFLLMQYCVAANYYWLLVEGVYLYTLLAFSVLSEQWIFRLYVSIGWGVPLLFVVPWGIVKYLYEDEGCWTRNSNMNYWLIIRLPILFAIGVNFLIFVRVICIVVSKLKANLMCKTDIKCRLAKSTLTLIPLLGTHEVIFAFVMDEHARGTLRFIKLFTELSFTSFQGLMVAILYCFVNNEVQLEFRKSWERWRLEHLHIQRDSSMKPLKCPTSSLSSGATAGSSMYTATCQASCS
Summary of the method: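 cAMP formation was read by AlphaScreen after a 3 h room-temperature incubation of agonist with human GLP-1 receptor BHK membranes (6 μg/well). The pH 7.4 buffer held 10 mM MgCl2, 1 mM ATP, 1 μM GTP and 0.5 mM IBMX. EC50 values were estimated by four-parameter logistic regression.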

db/db mice = assay: Pharmacodynamic study using db/db mice (blood glucose after subcutaneous dosing); assay type: in vivo; conditions: 30 nmol/kg subcutaneous
Description: The efficacy and duration of action were measured after dosing of 30 nmol/kg to db/db mice. Male db/db mice were shipped from Taconic, Denmark at the age of 8-10 weeks. From the time of arrival, the mice were housed under standard conditions but at 24° C. The mice were kept 10 per cage until experimentation with free access to standard chow (Altromin, Brogaarden APS., Denmark) and tap water at a normal day: light cycle (light on at 6 am). […] After this, the mice were euthanized.
After an acclimatisation period of 1 week, the blood glucose was measured by sampling from the tail tip capillary. In brief, 5 μl blood was sampled in heparinised glass capillary tubes and immediately suspended in 250 μl EBIO buffer solution (Eppendorf, Germany) in an 1.5 ml Eppendorf tube. The blood glucose concentration was measured by the glucose oxidase method at the EBIO Plus Auto analyser (Eppendorf, Germany).
The cut of value for blood glucose was 10 mM. When evaluating the mice, it was considered essential, that all 42 mice entering the experiment had blood glucose values above 10 mM, but also that the inter-mice variance was small. Therefore, if many mice were not severely diabetic, whereas some were, the start up of experiments was postponed one week and new basal blood glucose measurements were made.
Based on the basal blood glucose values, the mice were allocated to 7 groups of n=6 with matching group mean blood glucose values.
On the day of testing the basal blood glucose morning values were assessed as described above and the basal body weight of each mouse was assessed. A time 0, the compound was dosed subcutaneously in the scruff of the neck (dosing volume app. 300 μl/50 g mouse).
The blood glucose values were followed up to 48 hours (time 1, 3, 6, 24 and 48 h) and the terminal body weight was assessed.
All data were entered into Graphpad Prism where mean blood glucose and mean delta body weights were calculated.

[1] = Chemical stability of solubilised peptide at 40° C., impurities monitored by RP-HPLC/UPLC; assay type: physicochemical; conditions: 2.5 weeks, 100 nmol peptide in 1 ml phosphate buffered saline, pH 7.4
Description: The chemical stability of solubilised acylated exendin-4 compounds were monitored by RP-HPLC following incubation at […]
The formation of exendin analogue related impurities relative to control samples stored in the freezer were monitored with a Waters UPLC system. Samples were applied to Acquity UPLC BEH C18 (1.7 μm) 2.1×50 mm column and eluted at a flow rate of 0.9 ml/min with linear stepwise gradients of acetonitrile in 0.1% trifluoroacetic acid (from 5 to 100% acetonitrile for 10 min, and from 100 to 5% acetonitrile for 1 min). The column was heated to 30 C and detection was performed at 214 nm.

[2] = cAMP, membranes with human GLP-1 receptor, mean value, read-out: GLP1cAMPma (3693) [EC50 (nM)] Mean Value

Structure (SMILES) | EC50 (human GLP-1 receptor) | Delta AUC for blood glucose after 30 nmol/kg in db/db mice, 48 hours (db/db mice) | EC50 (human GLP-1 receptor; [2]) | Formation rate of peptide related impurities at 40° C. [1]
CCCCCCCCCCCCCCCCCC(=O)NCCOCCOCC(=O)NCCOCCOCC(=O)NCCOCCOCC(=O)NCCCC[C@H](NC(=O)[C@@H](NC(=O)[C@H](C)NC(=O)[C@H](CCC(=O)O)NC(=O)[C@H](CCC(=O)O)NC(=O)[C@H](CCC(=O)O)NC(=O)[C@H](CC(C)C)NC(=O)[C@H](CCC(N)=O)NC(=O)[C@H](CCCNC(=N)N)NC(=O)[C@H](CO)NC(=O)[C@H](CC(C)C)NC(=O)[C@H](CC(=O)O)NC(=O)[C@H](CO)NC(=O)[C@@H](NC(=O)[C@H](Cc1ccccc1)NC(=O)[C@@H](NC(=O)CNC(=O)[C@H](CCC(=O)O)NC(=O)CNC(=O)[C@@H](N)Cc1c[nH]cn1)[C@@H](C)O)[C@@H](C)O)C(C)C)C(=O)N[C@@H](CC(C)C)C(=O)N[C@@H](Cc1ccccc1)C(=O)N[C@H](C(=O)N[C@@H](CCC(=O)O)C(=O)N[C@@H](Cc1c[nH]c2ccccc12)C(=O)N[C@@H](CC(C)C)C(=O)N[C@@H](CCCNC(=N)N)C(=O)N[C@@H](CCCNC(=N)N)C(=O)NCC(=O)NCC(=O)N1CCC[C@H]1C(=O)N[C@@H](CO)C(=O)N[C@@H](CO)C(=O)NCC(=O)N[C@@H](C)C(=O)N1CCC[C@H]1C(=O)N1CCC[C@H]1C(=O)N1CCC[C@H]1C(=O)N[C@@H](CO)C(N)=O)[C@@H](C)CC [Example 5, N-ε^20-(2-(2-(2-(2-(2-(2-(2-(2-(2-(Octadecanoylamino)ethoxy)ethoxy)acetylamino)ethoxy)ethoxy)acetyl-amino)ethoxy)ethoxy)acety))[Arg^12,27,28,Leu^14,Lys^20 Exendin-4(1-39)amide] (H-HGEGTFTSDLSRQLEEEAVK([AEEA-AEEA-AEEA-Stearoyl])LFIEWLRRGGPSSGAPPPS-NH2; N-terminus assumed) | 0.007 nM | −410 ± 111, *** mM × hour |  | 
CC[C@H](C)[C@H](NC(=O)[C@H](Cc1ccccc1)NC(=O)[C@H](CC(C)C)NC(=O)[C@H](CCCNC(=N)N)NC(=O)[C@@H](NC(=O)[C@H](C)NC(=O)[C@H](CCC(=O)O)NC(=O)[C@H](CCC(=O)O)NC(=O)[C@H](CCC(=O)O)NC(=O)[C@H](CC(C)C)NC(=O)[C@H](CCC(N)=O)NC(=O)[C@H](CCCNC(=N)N)NC(=O)[C@H](CO)NC(=O)[C@H](CC(C)C)NC(=O)[C@H](CC(=O)O)NC(=O)[C@H](CO)NC(=O)[C@@H](NC(=O)[C@H](Cc1ccccc1)NC(=O)[C@@H](NC(=O)CNC(=O)[C@H](CCC(=O)O)NC(=O)CNC(=O)[C@@H](N)Cc1c[nH]cn1)[C@@H](C)O)[C@@H](C)O)C(C)C)C(=O)N[C@@H](CCC(=O)O)C(=O)N[C@@H](Cc1c[nH]c2ccccc12)C(=O)N[C@@H](CC(C)C)C(=O)N[C@@H](CCCNC(=N)N)C(=O)N[C@@H](CC(N)=O)C(=O)NCC(=O)NCC(=O)N1CCC[C@H]1C(=O)N[C@@H](CO)C(=O)N[C@@H](CO)C(=O)N[C@@H](CCCCNC(=O)COCCOCCNC(=O)CCCCCCCCCCCCCCCCC(=O)O)C(=O)N[C@@H](C)C(=O)N1CCC[C@H]1C(=O)N1CCC[C@H]1C(=O)N1CCC[C@H]1C(=O)N[C@@H](CO)C(N)=O [Example 8, N-ε^34-(2-(2-(2-(17-carboxyheptadecanoylamino)ethoxy)ethoxy)acetyl) [Leu^14,Arg^12,27,Lys^34]Exendin-4(1-39)amide] (H-HGEGTFTSDLSRQLEEEAVRLFIEWLRNGGPSSK([AEEA-C18 diacid])APPPS-NH2) | 0.44 nM | −500 ± 122, *** mM × hour |  | 
CC[C@H](C)[C@H](NC(=O)[C@H](Cc1ccccc1)NC(=O)[C@H](CC(C)C)NC(=O)[C@H](CCCNC(=N)N)NC(=O)[C@@H](NC(=O)[C@H](C)NC(=O)[C@H](CCC(=O)O)NC(=O)[C@H](CCC(=O)O)NC(=O)[C@H](CCC(=O)O)NC(=O)[C@H](CC(C)C)NC(=O)[C@H](CCC(N)=O)NC(=O)[C@H](CCCNC(=N)N)NC(=O)[C@H](CO)NC(=O)[C@H](CC(C)C)NC(=O)[C@H](CC(=O)O)NC(=O)[C@H](CO)NC(=O)[C@@H](NC(=O)[C@H](Cc1ccccc1)NC(=O)[C@@H](NC(=O)CNC(=O)[C@H](CCC(=O)O)NC(=O)CNC(=O)[C@@H](N)Cc1c[nH]cn1)[C@@H](C)O)[C@@H](C)O)C(C)C)C(=O)N[C@@H](CCC(=O)O)C(=O)N[C@@H](Cc1c[nH]c2ccccc12)C(=O)N[C@@H](CC(C)C)C(=O)N[C@@H](CCCNC(=N)N)C(=O)N[C@@H](CC(N)=O)C(=O)NCC(=O)NCC(=O)N1CCC[C@H]1C(=O)N[C@@H](CO)C(=O)N[C@@H](CO)C(=O)N[C@@H](CCCCNC(=O)COCCOCCNC(=O)CC[C@H](NC(=O)CCCCCCCCCCCCCCCc1nnn[nH]1)C(=O)O)C(=O)N[C@@H](C)C(=O)N1CCC[C@H]1C(=O)N1CCC[C@H]1C(=O)N1CCC[C@H]1C(=O)N[C@@H](CO)C(N)=O [Example 9] (H-HGEGTFTSDLSRQLEEEAVRLFIEWLRNGGPSSK([AEEA-γGlu-Palmitoyl(16-(5-tetrazolyl))])APPPS-NH2) |  | −395 ± 222, *** mM × hour | 0.61 nM | 
CCCCCCCCCCCCCCCCCC(=O)N[C@@H](CCC(=O)NCCOCCOCC(=O)NCCOCCOCC(=O)NCCCC[C@H](NC(=O)[C@H](CCC(N)=O)NC(=O)[C@H](CCCNC(=N)N)NC(=O)[C@H](CO)NC(=O)[C@H](CC(C)C)NC(=O)[C@H](CC(=O)O)NC(=O)[C@H](CO)NC(=O)[C@@H](NC(=O)[C@H](Cc1ccccc1)NC(=O)[C@@H](NC(=O)CNC(=O)[C@H](CCC(=O)O)NC(=O)CNC(=O)[C@@H](N)Cc1c[nH]cn1)[C@@H](C)O)[C@@H](C)O)C(=O)N[C@@H](CCC(=O)O)C(=O)N[C@@H](CCC(=O)O)C(=O)N[C@@H](CCC(=O)O)C(=O)N[C@@H](C)C(=O)N[C@H](C(=O)N[C@@H](CCCNC(=N)N)C(=O)N[C@@H](CC(C)C)C(=O)N[C@@H](Cc1ccccc1)C(=O)N[C@H](C(=O)N[C@@H](CCC(=O)O)C(=O)N[C@@H](Cc1c[nH]c2ccccc12)C(=O)N[C@@H](CC(C)C)C(=O)N[C@H](C(=O)N[C@@H](CCCNC(=N)N)C(=O)NCC(=O)NCC(=O)N1CCC[C@H]1C(=O)N[C@@H](CO)C(=O)N[C@@H](CO)C(=O)NCC(=O)N[C@@H](C)C(=O)N1CCC[C@H]1C(=O)N1CCC[C@H]1C(=O)N1CCC[C@H]1C(=O)N[C@@H](CO)C(N)=O)C(C)C)[C@@H](C)CC)C(C)C)C(=O)O [Example 29] (H-HGEGTFTSDLSRQK([AEEA-AEEA-γGlu-Stearoyl])EEEAVRLFIEWLVRGGPSSGAPPPS-NH2; N-terminus assumed) |  |  | 0.059 nM | 2.0 %/week
